This passage reports Kd results from ChEMBL document CHEMBL3991601, “The target landscape of clinical kinase drugs” (Science, 2017).

Structures can show the parent of a compound that is named as a salt. The source made the active and inactive calls. On the calls: in the data inactive means no Kd found up to 30 µM.

For assay [1], the target named is T1, Long-chain-fatty-acid--CoA ligase 5 (Homo sapiens, UniProt Q9ULC5).
T1 sequence (Q9ULC5 whole entry): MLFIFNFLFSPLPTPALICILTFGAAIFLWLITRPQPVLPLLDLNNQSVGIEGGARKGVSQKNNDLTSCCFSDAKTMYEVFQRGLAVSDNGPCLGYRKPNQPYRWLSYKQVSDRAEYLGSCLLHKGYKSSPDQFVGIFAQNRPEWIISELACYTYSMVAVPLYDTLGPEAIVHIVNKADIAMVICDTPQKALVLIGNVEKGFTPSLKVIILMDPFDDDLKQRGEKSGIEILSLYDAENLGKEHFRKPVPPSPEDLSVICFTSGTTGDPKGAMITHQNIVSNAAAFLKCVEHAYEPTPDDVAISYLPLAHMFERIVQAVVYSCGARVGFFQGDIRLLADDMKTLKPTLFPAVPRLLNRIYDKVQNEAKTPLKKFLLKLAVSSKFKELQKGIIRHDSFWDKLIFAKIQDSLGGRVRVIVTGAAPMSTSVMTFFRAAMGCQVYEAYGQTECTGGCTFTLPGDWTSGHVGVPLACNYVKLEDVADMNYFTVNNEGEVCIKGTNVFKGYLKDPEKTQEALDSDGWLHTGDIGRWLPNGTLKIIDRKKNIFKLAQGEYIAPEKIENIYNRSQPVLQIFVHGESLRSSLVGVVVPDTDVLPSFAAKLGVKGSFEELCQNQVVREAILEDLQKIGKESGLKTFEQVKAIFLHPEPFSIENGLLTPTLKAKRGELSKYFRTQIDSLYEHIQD

Assay [2] concerns the target MAP kinase-activated protein kinase 3 (Homo sapiens, UniProt Q16644).
Assay [3] concerns the target Serine/threonine-protein kinase PAK 6 (Homo sapiens, UniProt Q9NQU5).
For assay [4], the target named is Serine/threonine-protein kinase N3 (Homo sapiens, UniProt Q6P5Z2).
Serine/threonine-protein kinase N3, sequence (Q6P5Z2 whole entry): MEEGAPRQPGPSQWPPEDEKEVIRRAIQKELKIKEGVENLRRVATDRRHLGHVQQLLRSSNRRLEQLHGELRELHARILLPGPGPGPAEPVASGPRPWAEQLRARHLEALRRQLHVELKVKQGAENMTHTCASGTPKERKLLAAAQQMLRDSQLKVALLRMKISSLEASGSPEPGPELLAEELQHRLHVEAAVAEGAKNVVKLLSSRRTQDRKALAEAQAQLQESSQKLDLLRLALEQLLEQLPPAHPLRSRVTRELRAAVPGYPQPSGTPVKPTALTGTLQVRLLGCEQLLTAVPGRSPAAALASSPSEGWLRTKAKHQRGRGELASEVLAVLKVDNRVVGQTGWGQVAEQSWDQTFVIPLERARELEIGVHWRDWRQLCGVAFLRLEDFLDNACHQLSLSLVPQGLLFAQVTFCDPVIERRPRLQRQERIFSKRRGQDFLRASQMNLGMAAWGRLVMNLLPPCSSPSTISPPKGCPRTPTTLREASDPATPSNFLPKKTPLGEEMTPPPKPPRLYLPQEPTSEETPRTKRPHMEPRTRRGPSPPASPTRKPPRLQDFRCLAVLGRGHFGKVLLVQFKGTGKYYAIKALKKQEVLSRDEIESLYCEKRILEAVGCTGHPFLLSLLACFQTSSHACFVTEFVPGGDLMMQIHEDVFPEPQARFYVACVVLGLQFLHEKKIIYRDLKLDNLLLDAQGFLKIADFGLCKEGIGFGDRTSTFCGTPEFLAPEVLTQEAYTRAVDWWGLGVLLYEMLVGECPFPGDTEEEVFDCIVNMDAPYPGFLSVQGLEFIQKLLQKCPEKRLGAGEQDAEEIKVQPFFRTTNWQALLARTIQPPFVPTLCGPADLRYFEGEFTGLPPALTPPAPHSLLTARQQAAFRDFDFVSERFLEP
In assay [5] the target is T2, Isoleucine--tRNA ligase, mitochondrial (Homo sapiens, UniProt Q9NSE4).
T2 sequence (Q9NSE4 whole entry): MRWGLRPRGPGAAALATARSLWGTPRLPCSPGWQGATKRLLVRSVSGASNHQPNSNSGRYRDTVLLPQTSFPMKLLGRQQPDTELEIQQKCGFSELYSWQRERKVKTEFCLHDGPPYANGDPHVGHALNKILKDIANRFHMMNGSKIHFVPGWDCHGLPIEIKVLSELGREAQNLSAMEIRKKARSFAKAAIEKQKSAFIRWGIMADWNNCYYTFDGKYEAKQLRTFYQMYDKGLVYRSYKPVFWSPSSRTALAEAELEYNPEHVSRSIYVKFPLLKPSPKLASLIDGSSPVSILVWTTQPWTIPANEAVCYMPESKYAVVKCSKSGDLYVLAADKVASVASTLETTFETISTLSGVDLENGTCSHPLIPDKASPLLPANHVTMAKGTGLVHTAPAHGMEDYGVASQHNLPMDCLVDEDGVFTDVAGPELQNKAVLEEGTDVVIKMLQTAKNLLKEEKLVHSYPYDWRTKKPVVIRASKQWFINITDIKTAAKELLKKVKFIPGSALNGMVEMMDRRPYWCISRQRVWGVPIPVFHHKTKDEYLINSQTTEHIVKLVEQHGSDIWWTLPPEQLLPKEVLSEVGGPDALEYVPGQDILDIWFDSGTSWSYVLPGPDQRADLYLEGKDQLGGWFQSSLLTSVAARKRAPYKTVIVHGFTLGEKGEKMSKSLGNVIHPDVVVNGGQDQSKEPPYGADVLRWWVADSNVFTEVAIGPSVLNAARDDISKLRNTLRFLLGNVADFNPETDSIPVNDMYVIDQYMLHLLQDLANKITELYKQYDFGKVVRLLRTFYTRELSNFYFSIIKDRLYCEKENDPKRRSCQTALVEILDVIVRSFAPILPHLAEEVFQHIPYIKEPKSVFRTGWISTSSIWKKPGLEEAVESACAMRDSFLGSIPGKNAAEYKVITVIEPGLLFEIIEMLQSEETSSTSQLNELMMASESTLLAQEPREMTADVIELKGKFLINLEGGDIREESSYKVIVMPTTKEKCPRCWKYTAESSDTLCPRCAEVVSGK

Assay [6] deals with T3, Dual specificity protein kinase TTK (Homo sapiens, UniProt P33981).
T3 sequence (P33981 whole entry): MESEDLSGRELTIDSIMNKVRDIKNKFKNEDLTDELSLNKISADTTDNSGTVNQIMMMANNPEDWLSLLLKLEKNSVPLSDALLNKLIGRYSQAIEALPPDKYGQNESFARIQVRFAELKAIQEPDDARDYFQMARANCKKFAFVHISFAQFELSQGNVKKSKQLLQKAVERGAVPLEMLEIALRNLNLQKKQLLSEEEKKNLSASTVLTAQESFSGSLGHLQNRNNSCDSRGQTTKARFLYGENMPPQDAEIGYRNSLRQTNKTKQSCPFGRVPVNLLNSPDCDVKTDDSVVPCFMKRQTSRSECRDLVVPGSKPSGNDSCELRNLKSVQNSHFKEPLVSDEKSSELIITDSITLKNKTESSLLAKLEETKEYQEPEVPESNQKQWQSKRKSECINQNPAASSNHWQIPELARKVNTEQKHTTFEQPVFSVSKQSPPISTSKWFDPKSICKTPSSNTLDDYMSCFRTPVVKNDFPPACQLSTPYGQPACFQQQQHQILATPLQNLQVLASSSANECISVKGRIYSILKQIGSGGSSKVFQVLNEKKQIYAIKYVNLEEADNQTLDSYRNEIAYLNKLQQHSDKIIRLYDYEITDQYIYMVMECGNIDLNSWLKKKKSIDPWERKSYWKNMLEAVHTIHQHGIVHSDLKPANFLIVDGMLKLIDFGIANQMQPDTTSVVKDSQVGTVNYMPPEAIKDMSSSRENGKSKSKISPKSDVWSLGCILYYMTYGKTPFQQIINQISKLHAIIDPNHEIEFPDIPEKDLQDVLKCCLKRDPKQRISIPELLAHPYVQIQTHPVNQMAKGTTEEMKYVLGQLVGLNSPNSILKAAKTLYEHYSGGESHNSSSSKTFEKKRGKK

In assay [7] the target is Cell division cycle 7-related protein kinase (Homo sapiens, UniProt O00311).
Cell division cycle 7-related protein kinase, sequence (O00311 whole entry): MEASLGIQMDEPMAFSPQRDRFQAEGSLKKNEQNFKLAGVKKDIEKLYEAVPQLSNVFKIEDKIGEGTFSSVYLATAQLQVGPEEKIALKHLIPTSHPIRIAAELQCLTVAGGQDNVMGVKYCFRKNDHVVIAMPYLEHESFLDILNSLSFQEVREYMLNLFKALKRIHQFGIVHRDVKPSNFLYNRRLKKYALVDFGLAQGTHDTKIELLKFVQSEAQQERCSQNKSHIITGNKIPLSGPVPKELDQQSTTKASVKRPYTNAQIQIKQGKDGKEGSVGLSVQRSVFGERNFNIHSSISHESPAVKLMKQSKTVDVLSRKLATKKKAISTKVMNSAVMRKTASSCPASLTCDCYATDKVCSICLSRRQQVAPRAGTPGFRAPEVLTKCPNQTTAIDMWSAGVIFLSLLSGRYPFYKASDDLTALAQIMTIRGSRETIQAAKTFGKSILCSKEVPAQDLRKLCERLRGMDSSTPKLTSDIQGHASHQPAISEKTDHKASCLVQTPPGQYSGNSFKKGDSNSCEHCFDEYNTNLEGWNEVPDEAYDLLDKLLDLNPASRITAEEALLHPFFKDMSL
The target in assay [8] is Serine/threonine-protein kinase ATR (Homo sapiens, UniProt Q13535).
Serine/threonine-protein kinase ATR, sequence (Q13535 whole entry): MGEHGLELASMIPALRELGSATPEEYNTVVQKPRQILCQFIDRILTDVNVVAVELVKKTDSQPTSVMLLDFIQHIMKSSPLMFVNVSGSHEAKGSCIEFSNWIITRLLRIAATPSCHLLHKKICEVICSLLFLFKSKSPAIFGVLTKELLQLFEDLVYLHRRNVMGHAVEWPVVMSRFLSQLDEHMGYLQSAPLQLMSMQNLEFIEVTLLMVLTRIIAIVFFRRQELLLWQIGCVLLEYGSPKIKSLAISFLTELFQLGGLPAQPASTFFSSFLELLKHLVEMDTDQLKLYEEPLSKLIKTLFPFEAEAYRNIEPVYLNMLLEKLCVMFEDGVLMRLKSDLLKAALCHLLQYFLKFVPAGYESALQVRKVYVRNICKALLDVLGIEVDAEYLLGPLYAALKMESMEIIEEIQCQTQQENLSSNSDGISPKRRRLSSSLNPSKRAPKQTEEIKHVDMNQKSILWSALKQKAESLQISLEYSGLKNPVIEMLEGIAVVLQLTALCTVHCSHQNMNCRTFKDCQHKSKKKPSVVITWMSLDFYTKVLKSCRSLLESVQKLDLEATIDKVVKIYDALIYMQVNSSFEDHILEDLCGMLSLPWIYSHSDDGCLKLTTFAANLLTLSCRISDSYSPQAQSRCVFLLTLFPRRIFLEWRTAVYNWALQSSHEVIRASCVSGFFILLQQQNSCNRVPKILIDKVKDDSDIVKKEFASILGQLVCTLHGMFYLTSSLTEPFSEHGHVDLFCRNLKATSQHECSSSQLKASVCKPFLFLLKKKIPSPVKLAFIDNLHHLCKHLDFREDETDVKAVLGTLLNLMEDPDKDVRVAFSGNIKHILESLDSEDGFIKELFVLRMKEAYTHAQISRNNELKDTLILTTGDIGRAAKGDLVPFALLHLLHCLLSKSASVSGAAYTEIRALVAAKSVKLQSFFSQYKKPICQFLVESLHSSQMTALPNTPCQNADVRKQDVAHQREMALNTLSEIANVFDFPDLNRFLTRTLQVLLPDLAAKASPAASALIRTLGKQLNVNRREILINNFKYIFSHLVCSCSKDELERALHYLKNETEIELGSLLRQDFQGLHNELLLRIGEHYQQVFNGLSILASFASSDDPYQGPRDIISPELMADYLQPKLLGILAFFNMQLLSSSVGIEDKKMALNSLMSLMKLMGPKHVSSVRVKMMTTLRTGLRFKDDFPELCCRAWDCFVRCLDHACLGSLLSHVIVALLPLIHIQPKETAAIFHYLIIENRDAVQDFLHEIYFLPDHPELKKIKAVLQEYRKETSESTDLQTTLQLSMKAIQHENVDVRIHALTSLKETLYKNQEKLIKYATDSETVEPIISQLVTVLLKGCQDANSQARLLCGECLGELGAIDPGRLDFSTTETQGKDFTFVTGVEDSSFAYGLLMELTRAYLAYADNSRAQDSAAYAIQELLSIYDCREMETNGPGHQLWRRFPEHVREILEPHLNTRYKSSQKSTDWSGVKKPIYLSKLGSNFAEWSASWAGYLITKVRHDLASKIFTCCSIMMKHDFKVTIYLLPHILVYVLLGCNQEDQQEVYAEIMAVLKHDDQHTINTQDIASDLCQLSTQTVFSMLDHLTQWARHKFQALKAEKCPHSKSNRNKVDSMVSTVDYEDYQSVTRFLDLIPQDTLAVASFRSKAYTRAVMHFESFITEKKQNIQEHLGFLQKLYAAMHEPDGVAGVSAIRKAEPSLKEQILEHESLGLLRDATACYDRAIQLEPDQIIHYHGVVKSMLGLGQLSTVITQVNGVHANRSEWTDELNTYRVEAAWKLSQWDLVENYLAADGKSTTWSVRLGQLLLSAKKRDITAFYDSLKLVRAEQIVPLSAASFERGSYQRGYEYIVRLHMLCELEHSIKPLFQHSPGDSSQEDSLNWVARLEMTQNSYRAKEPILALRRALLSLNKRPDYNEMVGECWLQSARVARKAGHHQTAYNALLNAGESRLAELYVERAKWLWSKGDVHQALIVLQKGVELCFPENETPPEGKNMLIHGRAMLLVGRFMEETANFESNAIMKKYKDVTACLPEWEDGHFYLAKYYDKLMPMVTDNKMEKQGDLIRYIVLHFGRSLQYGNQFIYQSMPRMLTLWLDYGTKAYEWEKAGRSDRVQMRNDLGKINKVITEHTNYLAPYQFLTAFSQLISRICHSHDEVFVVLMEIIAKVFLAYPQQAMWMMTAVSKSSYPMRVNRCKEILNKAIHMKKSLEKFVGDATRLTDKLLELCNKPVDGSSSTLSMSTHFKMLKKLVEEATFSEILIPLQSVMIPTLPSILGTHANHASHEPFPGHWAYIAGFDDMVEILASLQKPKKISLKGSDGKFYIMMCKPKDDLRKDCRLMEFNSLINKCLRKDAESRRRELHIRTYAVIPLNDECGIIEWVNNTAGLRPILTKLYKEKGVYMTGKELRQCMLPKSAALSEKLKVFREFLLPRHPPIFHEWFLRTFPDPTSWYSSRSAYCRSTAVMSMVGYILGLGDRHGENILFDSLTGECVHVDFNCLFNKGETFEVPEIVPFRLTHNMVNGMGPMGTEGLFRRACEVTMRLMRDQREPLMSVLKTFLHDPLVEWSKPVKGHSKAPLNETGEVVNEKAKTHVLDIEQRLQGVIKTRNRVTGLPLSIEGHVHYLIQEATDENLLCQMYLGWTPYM

MAP kinase-activated protein kinase 3, sequence (Q16644 whole entry): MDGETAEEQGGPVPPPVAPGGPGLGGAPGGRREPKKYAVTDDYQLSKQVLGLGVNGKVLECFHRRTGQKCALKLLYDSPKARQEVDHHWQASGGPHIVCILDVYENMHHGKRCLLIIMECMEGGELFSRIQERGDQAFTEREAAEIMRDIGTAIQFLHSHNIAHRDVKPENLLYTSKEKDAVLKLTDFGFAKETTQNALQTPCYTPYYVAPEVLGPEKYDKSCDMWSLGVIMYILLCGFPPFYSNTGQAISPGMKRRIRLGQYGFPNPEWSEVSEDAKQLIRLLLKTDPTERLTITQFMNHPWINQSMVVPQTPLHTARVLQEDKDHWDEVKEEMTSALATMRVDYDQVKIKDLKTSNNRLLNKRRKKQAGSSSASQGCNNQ

The term Kd denotes a measure of binding affinity in units of concentration. Turning to `C=CC(=O)N1CCC[C@H](n2c(=O)n(-c3ccc(Oc4ccccc4)cc3)c3c(N)ncnc32)C1`, the Kd in assay [1], in assay [2], in assay [3] and in assay [4] was > 30 µM (inactive) each time.

As for `Cc1csc(-c2nnc(Nc3ccc(Oc4ncccc4-c4ccnc(N)n4)cc3)c3ccccc23)c1` [AMG-900], the Kd in assay [5], in assay [2] and in assay [6] was > 30 µM (inactive) throughout.

Take `O=C(Nc1c[nH]nc1-c1nc2cc(CN3CCOCC3)ccc2[nH]1)NC1CC1` [AT-9283]: the Kd in assay [1] is > 30 µM (inactive); in assay [7] it was 0.511 µM; in assay [5], > 30 µM (inactive); in assay [3] it was 0.213 µM (active); in assay [4], > 30 µM (inactive); in assay [6] it was > 30 µM (inactive).

Regarding `C=CC(=O)Nc1cc2c(Nc3ccc(F)c(Cl)c3)ncnc2cc1C#CC(C)(C)N1CCN(C)CC1` [AV-412 FREE BASE], the Kd in assay [1], in assay [8], in assay [2], in assay [3] and in assay [4] was > 30 µM (inactive) each time.

Regarding `COc1cc2ncnc(Oc3cccc(NC(=O)Nc4cc(C(C)(C)C(F)(F)F)on4)c3)c2cc1OC` [CEP-32496], the Kd in assay [7], in assay [5], in assay [2], in assay [4] and in assay [6] was > 30 µM (inactive) in each case.

For the molecule `C#Cc1cccc(Nc2ncnc3cc(OC)c(OCCCCCCC(=O)NO)cc23)c1` [CUDC-101], the Kd in assay [1], in assay [7], in assay [2], in assay [3], in assay [4] and in assay [6] was > 30 µM (inactive) in each case.

Regarding `CCS(=O)(=O)N1CCN(c2ccc(Nc3ncc(C(N)=O)c(NC4CC4)n3)cc2)CC1` [Cerdulatinib Hydrochloride], the Kd in assay [1], in assay [8], in assay [7], in assay [2] and in assay [3] was > 30 µM (inactive) throughout.

As to `Cn1cc(C2=C(c3cn(C4CCN(Cc5ccccn5)CC4)c4ccccc34)C(=O)NC2=O)c2ccccc21` [ENZASTAURIN], the Kd in assay [8], in assay [7] and in assay [2] was > 30 µM (inactive) throughout.

With `Cc1cccc(-c2nn3c(c2-c2ccnc4ccc(C(N)=O)cc24)CCC3)n1` [GALUNISERTIB], the Kd in assay [1], in assay [8], in assay [5], in assay [3] and in assay [6] was > 30 µM (inactive) in each case.

As to `C[C@@H](Oc1cc(-n2cnc3ccc(CN4CCN(C)CC4)cc32)sc1C(N)=O)c1ccccc1C(F)(F)F` [GSK-461364], the Kd in assay [1], in assay [8], in assay [5], in assay [2] and in assay [4] was > 30 µM (inactive) each time.

In the case of `CNC(=O)c1cccc2cc(Oc3ccnc4cc(OCC5(N)CC5)c(OC)cc34)ccc12` [LUCITANIB], the Kd in assay [8], in assay [7], in assay [5], in assay [4] and in assay [6] was > 30 µM (inactive) throughout.

With `NC1(c2ccc(-c3nc4ccn5c(=O)[nH]nc5c4cc3-c3ccccc3)cc2)CCC1` [MK-2206], the Kd in assay [1], in assay [7], in assay [5], in assay [2], in assay [3] and in assay [4] was > 30 µM (inactive) in each case.

On to `Cc1cnc(NC(=O)Nc2cc(Br)c(C)cc2OC[C@@H]2CNCCO2)cn1` [RABUSERTIB], for which the Kd in assay [1], in assay [8], in assay [7], in assay [5], in assay [2] and in assay [3] was > 30 µM (inactive) in each case. The Kd in assay [4] is > 30 µM (inactive).

Turning to `CNC(=O)c1cc(Oc2ccc(NC(=O)Nc3cc(C(C)(C)C)nn3-c3ccc4ncccc4c3)c(F)c2)ccn1` [REBASTINIB], the Kd in assay [2], in assay [4] and in assay [6] was > 30 µM (inactive) each time.

With `O=C(NOCCO)c1cc(CN2OCCCC2=O)c(F)c(F)c1Nc1ccc(I)cc1F` [RO-4987655], the Kd in assay [1], in assay [8], in assay [7], in assay [5], in assay [2] and in assay [4] was > 30 µM (inactive) in each case.

For the molecule `CO[C@H]1C[C@@H]2CC[C@@H](C)[C@@](O)(O2)C(=O)C(=O)N2CCCC[C@H]2C(=O)O[C@H]([C@H](C)C[C@@H]2CC[C@@H](O)[C@H](OC)C2)CC(=O)[C@H](C)/C=C(\C)[C@@H](O)[C@@H](OC)C(=O)[C@H](C)C[C@H](C)/C=C/C=C/C=C/1C` [SIROLIMUS], the Kd in assay [7], in assay [5], in assay [4] and in assay [6] was > 30 µM (inactive) each time.

Consider `Cc1cc(Nc2ncnc3ccc(NC4=NC(C)(C)CO4)cc23)ccc1Oc1ccn2ncnc2c1` [TUCATINIB], for which the Kd in assay [7], in assay [5], in assay [2] and in assay [4] was > 30 µM (inactive) each time.
